Measured values: PMC6151550, “Inhibitory Effect of Selaginellins from Selaginella tamariscina (Beauv.) Spring against Cytochrome P450 and Uridine 5′-Diphosphoglucuronosyltransferase Isoforms on Human Liver Microsomes” (Molecules : A Journal of Synthetic Chemistry and Natural …, 2017)

Experiments:
Assay type in all cases: in vitro ADME
UGT1A4 = molecular target: T1, UGT1A4 (Homo sapiens, UniProt P22310); assay: UGT1A4 inhibition (trifluoperazine glucuronidation) in human liver microsomes, cocktail LC-MS/MS
T1 construct: from tissue; host or cells: human liver microsomes
T1 sequence (P22310 29-534): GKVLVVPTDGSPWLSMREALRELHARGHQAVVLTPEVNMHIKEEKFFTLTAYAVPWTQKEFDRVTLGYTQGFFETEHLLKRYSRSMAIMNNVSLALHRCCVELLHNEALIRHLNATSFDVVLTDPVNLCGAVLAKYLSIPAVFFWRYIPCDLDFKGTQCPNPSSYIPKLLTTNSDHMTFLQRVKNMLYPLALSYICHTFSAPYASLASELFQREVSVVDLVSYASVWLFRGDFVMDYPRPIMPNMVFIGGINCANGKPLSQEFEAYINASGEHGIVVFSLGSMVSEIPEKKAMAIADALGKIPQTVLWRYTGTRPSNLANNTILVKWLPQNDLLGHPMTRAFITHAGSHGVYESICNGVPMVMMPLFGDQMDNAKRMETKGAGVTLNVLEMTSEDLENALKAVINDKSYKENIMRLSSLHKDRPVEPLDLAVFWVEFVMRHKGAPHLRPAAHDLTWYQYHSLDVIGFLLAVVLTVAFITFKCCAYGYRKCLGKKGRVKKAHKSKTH
Protocol: (§1) The inhibitory effects of two selaginellins on the metabolism of six UGT probe substrates were evaluated using previously reported method with minor modification. In brief, HLMs (0.25 mg/mL) were activated by incubation in the presence of alamethicin (25 μg/mL) for 15 min on ice. After the addition of UGT isoform-selective substrates and selaginellins (0, 0.5, 2, 5, 20 and 50 μM) the final concentrations of organic solvent (methanol) for the cocktail incubation conditions were 1.0% (v/v). The incubation reaction mixtures were pre-incubated for 5 min. The reaction was initiated by the addition of 5 mM UDPGA and further incubated for 60 min. All reactions were terminated by adding ice-cold acetonitrile containing estrone glucuronide (IS). After mixing and centrifugation, aliquots were injected into a LC-MS/MS as described previously (Table 2). All microsomal incubations were performed in triplicate.
(§2) The IC50 values (concentration of the inhibitor causing 50% inhibition of the original enzyme activity) were calculated using WinNonlin software (Pharsight, Mountain View, CA, USA): percentage of control activity = 100 × [1 − (I/(I + IC50))], where I is the inhibitor concentration, and IC50 is the inflection point on the curve.

UGT1A3 = molecular target: T2, UGT1A3 (Homo sapiens, UniProt P35503); assay: UGT1A3 inhibition (chenodeoxycholic acid glucuronidation) in human liver microsomes, cocktail LC-MS/MS; conditions: IC50 UGT isoform 1A3, HLMs 0.25 mg/mL with alamethicin, chenodeoxycholic acid 2.0 μM
T2 construct: from tissue; host or cells: human liver microsomes
T2 sequence (P35503 29-534): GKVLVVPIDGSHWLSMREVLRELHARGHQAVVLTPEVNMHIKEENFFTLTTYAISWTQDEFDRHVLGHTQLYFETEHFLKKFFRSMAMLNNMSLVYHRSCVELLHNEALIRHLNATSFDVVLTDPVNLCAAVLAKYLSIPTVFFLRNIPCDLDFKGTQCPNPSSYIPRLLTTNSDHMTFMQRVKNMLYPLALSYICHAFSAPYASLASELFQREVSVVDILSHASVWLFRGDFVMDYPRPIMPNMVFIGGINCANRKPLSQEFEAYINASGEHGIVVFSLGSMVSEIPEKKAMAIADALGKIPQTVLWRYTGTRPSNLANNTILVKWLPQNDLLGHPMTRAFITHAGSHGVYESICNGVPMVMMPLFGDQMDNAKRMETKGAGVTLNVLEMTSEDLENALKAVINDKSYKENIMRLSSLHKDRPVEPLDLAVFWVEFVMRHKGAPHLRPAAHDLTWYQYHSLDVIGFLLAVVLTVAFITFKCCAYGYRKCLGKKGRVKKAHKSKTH
Protocol: as §1, §2

UGT1A1 = molecular target: T3, UGT1A1 (Homo sapiens, UniProt P22309); assay: UGT1A1 inhibition (SN-38 glucuronidation) in human liver microsomes, cocktail LC-MS/MS; conditions: IC50 UGT isoform 1A1, HLMs 0.25 mg/mL with alamethicin, SN-38 0.5 μM
T3 construct: from tissue; host or cells: human liver microsomes
T3 sequence (P22309 26-533): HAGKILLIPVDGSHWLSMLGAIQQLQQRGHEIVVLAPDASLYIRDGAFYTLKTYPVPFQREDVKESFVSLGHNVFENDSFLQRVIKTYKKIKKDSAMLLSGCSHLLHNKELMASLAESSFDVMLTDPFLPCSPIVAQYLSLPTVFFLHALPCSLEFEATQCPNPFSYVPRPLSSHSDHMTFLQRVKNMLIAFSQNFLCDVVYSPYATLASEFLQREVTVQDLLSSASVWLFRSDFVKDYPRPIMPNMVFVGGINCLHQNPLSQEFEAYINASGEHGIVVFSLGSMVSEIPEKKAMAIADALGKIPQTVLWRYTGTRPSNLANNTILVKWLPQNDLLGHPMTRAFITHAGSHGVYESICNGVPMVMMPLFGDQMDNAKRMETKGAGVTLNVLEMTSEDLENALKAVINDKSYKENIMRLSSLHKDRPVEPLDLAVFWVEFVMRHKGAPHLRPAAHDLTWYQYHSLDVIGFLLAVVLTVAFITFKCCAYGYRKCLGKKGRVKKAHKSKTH
Protocol: as §1, §2

UGT2B7 = molecular target: T4, UGT2B7 (Homo sapiens, UniProt P16662); assay: UGT2B7 inhibition (naloxone glucuronidation) in human liver microsomes, cocktail LC-MS/MS
T4 construct: from tissue; host or cells: human liver microsomes
T4 sequence (P16662 24-529): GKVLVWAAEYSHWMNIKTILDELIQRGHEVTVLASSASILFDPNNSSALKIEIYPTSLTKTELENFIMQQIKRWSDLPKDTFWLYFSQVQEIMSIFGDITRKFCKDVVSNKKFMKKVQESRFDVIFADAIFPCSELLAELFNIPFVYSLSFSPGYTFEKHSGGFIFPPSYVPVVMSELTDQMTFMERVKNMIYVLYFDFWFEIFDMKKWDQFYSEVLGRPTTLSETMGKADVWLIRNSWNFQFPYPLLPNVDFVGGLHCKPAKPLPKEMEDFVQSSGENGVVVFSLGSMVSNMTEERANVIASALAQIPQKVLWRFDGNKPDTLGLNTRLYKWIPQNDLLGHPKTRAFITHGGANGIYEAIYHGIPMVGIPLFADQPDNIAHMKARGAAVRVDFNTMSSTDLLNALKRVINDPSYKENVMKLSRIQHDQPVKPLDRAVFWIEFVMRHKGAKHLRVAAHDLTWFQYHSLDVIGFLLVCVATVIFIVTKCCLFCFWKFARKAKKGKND
Protocol: as §1, §2

Row | SMILES | IC50 (UGT1A4) [µM] | IC50 (UGT1A3) [µM] | IC50 (UGT1A1) [µM] | IC50 (UGT2B7) [µM]
1 | COc1ccc(C(=C2C=CC(=O)C=C2)c2c(-c3ccc(O)cc3)ccc(CO)c2C#Cc2ccc(O)cc2)cc1 [Selaginellin M] | 3.9 | 3.5 | 1.3 | 10.4
2 | O=C1C=CC(=C(c2ccc(O)cc2)c2c(-c3ccc(O)cc3)ccc(CO)c2C#Cc2ccc(O)cc2)C=C1 [Selaginellin] | 6.6 | 4.7 | 1 | 15.6
